Assay results reported in patent US20230391768A2, “IMIDAZOPYRIDINE DERIVATIVES AND AZA-IMIDAZOPYRIDINE DERIVATIVES AS JANUS KINASE 2 INHIBITORS AND USES THEREOF” (Dana-Farber Cancer Institute, Inc., priority 2018, published 2023).

How the values were obtained:
Experiment in all cases: KINOMEscan
Format in all cases: binding
Conditions in all cases: read-out: percent of control
[1] = target: ABL1(F317L)-phosphorylated (Homo sapiens (Human), UniProt P00519, F317L)
Method: (§1) In vitro profiling of Compound I-2 (1 μM) was performed using the DiscoveRx KINOMEscan® platform.

ABL2 = ABL2 (Homo sapiens (Human), UniProt P42684)
ABL2, sequence (P42684 whole entry): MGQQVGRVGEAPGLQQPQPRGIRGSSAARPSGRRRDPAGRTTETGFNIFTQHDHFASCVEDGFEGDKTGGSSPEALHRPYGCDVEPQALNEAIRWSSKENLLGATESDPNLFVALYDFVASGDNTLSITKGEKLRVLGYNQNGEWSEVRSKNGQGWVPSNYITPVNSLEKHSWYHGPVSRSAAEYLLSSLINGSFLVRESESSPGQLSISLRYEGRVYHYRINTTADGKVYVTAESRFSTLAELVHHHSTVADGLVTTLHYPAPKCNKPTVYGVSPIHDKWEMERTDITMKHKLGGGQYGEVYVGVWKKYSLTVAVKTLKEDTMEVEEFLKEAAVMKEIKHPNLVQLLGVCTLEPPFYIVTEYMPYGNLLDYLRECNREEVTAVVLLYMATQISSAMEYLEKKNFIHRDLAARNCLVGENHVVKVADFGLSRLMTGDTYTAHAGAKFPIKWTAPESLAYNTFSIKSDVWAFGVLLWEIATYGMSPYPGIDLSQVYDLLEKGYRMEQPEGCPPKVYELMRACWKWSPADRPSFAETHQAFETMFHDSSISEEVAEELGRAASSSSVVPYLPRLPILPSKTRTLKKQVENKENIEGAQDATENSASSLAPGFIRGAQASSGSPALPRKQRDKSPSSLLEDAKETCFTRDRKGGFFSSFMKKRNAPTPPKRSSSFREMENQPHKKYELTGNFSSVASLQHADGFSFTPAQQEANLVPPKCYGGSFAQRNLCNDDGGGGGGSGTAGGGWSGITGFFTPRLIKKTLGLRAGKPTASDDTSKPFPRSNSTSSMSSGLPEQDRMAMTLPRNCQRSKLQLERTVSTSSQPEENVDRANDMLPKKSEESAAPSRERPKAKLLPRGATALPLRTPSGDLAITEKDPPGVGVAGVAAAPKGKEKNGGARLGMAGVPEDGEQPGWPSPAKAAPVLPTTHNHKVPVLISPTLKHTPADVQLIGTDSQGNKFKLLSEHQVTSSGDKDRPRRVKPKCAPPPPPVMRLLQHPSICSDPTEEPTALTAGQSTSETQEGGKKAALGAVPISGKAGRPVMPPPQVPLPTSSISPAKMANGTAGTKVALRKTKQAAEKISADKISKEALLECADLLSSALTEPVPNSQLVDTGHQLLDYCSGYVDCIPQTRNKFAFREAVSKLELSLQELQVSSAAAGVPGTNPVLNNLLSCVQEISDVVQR
Method: as §1

AKT3 = AKT3 (Homo sapiens (Human), UniProt Q9Y243)
Method: as §1

AMPK-alpha1 = AMPK-alpha1 (Homo sapiens (Human), UniProt Q13131)
Method: as §1

ASK1 = ASK1 (Homo sapiens (Human), UniProt Q99683)
Method: as §1

BRK = BRK (Homo sapiens (Human), UniProt Q13882)
Method: as §1

CAMK1D = CAMK1D (Homo sapiens (Human), UniProt Q8IU85)
Method: as §1

CAMK2G = CAMK2G (Homo sapiens (Human), UniProt Q13555)
Method: as §1

CAMK4 = CAMK4 (Homo sapiens (Human), UniProt Q16566)
Method: as §1

CDK9 = CDK9 (Homo sapiens (Human), UniProt P50750)
Method: as §1

DAPK1 = DAPK1 (Homo sapiens (Human), UniProt P53355)
Method: as §1

EGFR(G719S) = EGFR(G719S) (Homo sapiens (Human), UniProt P00533, G719S)
Method: as §1

ERK8 = ERK8 (Homo sapiens (Human), UniProt Q8TD08)
Method: as §1

FGR = FGR (Homo sapiens (Human), UniProt P09769)
Method: as §1

HASPIN = HASPIN (Homo sapiens (Human), UniProt Q8TF76)
Method: as §1

IKK-beta = IKK-beta (Homo sapiens (Human), UniProt O14920)
IKK-beta, sequence (O14920 whole entry): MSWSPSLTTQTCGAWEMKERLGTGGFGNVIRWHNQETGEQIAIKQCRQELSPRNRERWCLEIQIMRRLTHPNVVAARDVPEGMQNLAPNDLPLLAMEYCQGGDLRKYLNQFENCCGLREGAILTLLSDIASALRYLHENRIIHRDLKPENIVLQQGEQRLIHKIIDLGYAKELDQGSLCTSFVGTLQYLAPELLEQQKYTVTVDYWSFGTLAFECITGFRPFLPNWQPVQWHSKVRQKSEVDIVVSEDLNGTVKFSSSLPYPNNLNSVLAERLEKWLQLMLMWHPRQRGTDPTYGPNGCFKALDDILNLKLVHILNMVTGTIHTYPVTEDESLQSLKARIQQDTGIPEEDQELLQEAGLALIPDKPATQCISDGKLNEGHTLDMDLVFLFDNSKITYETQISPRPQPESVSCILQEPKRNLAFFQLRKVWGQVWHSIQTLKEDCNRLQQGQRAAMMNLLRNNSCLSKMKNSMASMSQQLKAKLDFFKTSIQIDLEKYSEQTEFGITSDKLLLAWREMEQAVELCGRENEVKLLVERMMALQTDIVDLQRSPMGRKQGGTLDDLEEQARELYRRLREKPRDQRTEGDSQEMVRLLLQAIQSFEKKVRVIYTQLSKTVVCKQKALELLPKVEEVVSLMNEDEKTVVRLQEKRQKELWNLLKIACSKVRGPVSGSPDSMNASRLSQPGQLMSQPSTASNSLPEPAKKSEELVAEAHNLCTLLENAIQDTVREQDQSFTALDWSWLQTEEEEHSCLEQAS
Method: as §1

IRAK4 = IRAK4 (Homo sapiens (Human), UniProt Q9NWZ3)
Method: as §1

[2] = target: JAK1 (JH1domain-catalytic) (Homo sapiens (Human), UniProt P23458)
Method: as §1

KIT(D816V) = KIT(D816V) (Homo sapiens (Human), UniProt P10721, D816V)
Method: as §1

MEK2 = MEK2 (Homo sapiens (Human), UniProt P36507)
Method: as §1

MEK5 = MEK5 (Homo sapiens (Human), UniProt Q13163)
MEK5, sequence (Q13163 whole entry): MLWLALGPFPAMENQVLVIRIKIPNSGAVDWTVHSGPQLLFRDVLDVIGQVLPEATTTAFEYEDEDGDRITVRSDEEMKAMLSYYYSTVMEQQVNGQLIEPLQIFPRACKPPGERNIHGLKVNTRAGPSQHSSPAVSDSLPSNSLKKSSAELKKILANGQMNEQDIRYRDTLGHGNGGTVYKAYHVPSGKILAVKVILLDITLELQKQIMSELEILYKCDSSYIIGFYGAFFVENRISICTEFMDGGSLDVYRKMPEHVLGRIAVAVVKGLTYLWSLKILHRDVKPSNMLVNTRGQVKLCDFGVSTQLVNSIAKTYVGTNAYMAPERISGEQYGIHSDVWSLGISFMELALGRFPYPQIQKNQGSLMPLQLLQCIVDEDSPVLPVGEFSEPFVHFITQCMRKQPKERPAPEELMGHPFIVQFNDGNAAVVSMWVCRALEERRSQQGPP
Method: as §1

MRCKA = MRCKA (Homo sapiens (Human), UniProt Q5VT25)
Method: as §1

MST1R = MST1R (Homo sapiens (Human), UniProt Q04912)
Method: as §1

MUSK = MUSK (Homo sapiens (Human), UniProt O15146)
Method: as §1

MYLK = MYLK (Homo sapiens (Human), UniProt Q15746)
Method: as §1

PCTK2 = PCTK2 (Homo sapiens (Human), UniProt Q00537)
PCTK2, sequence (Q00537 whole entry): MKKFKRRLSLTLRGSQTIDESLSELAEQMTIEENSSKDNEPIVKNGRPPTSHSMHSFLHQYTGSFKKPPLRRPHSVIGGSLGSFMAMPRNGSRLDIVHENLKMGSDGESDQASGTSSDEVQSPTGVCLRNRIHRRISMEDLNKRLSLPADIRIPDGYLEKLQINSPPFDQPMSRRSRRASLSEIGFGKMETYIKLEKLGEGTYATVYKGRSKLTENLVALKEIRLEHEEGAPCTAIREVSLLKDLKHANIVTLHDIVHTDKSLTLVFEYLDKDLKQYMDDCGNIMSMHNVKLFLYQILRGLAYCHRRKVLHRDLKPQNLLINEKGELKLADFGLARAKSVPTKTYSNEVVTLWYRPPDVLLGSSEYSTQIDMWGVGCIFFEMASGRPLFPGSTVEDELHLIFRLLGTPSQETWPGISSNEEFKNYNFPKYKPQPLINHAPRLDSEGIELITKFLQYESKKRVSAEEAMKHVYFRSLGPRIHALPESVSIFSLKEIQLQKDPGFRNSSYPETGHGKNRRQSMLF
Method: as §1

PIK3CA(E542K) = PIK3CA(E542K) (Homo sapiens (Human), UniProt P42336, E542K)
Method: as §1

PIK3CA(H1047L) = PIK3CA(H1047L) (Homo sapiens (Human), UniProt P42336, H1047L)
Method: as §1

PIK3CD = PIK3CD (Homo sapiens (Human), UniProt O00329)
Method: as §1

PRP4 = PRP4 (Homo sapiens (Human), UniProt Q13523)
PRP4, sequence (Q13523 whole entry, looked up): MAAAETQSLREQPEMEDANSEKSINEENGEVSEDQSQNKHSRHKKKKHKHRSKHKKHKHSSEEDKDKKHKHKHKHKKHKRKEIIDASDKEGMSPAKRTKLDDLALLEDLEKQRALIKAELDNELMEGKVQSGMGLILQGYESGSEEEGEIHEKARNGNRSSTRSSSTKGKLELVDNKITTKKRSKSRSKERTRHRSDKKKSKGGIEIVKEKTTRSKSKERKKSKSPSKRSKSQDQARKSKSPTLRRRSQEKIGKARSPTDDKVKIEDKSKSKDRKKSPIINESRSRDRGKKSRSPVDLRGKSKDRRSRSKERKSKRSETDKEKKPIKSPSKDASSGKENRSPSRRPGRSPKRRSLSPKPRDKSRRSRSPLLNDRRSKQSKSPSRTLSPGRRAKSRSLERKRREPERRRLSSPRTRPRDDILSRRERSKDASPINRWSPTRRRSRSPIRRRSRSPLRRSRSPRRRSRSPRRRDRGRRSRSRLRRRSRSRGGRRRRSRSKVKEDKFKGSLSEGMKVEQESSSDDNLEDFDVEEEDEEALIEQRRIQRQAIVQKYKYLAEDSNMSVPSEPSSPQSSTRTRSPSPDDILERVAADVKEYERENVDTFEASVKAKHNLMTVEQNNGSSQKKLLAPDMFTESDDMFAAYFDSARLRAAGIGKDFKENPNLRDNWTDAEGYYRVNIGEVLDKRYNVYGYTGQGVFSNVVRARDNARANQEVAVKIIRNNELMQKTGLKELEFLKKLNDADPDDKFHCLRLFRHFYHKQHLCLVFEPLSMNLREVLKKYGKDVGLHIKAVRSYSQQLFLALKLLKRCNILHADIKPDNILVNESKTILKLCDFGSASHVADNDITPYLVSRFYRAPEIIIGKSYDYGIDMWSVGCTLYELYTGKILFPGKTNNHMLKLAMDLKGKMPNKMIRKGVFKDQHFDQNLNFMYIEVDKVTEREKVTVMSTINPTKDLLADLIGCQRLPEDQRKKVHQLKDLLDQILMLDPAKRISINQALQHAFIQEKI
Method: as §1

ROS1 = ROS1 (Homo sapiens (Human), UniProt P08922)
Method: as §1

SLK = SLK (Homo sapiens (Human), UniProt Q9H2G2)
Method: as §1

TGFBR1 = TGFBR1 (Homo sapiens (Human), UniProt P36897)
Method: as §1

TIE2 = TIE2 (Homo sapiens (Human), UniProt Q02763)
Method: as §1

TNK1 = TNK1 (Homo sapiens (Human), UniProt Q13470)
Method: as §1

ULK3 = ULK3 (Homo sapiens (Human), UniProt Q6PHR2)
Method: as §1

WNK1 = WNK1 (Homo sapiens (Human), UniProt Q9H4A3)
Method: as §1

YANK3 = YANK3 (Homo sapiens (Human), UniProt Q86UX6)
Method: as §1

YSK4 = YSK4 (Homo sapiens (Human), UniProt Q56UN5)
Method: as §1

ABL1(F317L)-phosphorylated, sequence (P00519 whole entry F317L): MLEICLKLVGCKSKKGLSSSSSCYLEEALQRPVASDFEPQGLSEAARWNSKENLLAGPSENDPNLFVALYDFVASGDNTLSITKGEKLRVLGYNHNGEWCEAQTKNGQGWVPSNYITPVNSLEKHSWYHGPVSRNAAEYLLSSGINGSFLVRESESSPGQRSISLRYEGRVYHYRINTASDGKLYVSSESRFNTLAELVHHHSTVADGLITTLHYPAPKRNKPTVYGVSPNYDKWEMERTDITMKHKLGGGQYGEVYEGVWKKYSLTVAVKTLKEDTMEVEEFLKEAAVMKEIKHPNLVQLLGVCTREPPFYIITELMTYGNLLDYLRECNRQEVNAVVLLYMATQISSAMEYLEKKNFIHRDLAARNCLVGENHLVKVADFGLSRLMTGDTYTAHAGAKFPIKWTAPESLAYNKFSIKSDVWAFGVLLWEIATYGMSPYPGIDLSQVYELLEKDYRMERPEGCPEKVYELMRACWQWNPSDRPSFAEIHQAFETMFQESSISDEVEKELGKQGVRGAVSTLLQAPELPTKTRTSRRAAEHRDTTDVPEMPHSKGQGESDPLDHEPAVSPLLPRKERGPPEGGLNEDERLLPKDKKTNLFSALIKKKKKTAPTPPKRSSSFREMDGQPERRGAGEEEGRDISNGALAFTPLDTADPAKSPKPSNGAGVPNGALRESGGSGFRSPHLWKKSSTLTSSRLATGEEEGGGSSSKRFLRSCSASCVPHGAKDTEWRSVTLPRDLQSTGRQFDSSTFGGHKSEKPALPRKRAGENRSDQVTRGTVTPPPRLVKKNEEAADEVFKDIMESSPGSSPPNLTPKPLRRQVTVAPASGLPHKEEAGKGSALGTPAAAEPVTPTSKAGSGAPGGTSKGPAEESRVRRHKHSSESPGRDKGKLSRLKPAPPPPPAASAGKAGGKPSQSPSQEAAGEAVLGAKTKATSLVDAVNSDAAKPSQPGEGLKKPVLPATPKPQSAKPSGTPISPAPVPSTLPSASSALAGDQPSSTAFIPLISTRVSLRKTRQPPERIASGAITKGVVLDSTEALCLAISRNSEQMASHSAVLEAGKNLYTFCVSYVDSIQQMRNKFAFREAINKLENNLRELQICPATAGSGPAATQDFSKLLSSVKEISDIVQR

Row | Structure (SMILES) | remaining binding at 1 µM [1] [%] | remaining binding at 1 µM (ABL2) [%] | remaining binding at 1 µM (AKT3) [%] | remaining binding at 1 µM (AMPK-alpha1) [%] | remaining binding at 1 µM (ASK1) [%] | remaining binding at 1 µM (BRK) [%] | remaining binding at 1 µM (CAMK1D) [%] | remaining binding at 1 µM (CAMK2G) [%] | remaining binding at 1 µM (CAMK4) [%] | remaining binding at 1 µM (CDK9) [%] | remaining binding at 1 µM (DAPK1) [%] | remaining binding at 1 µM (EGFR(G719S)) [%] | remaining binding at 1 µM (ERK8) [%] | remaining binding at 1 µM (FGR) [%] | remaining binding at 1 µM (HASPIN) [%] | remaining binding at 1 µM (IKK-beta) [%] | remaining binding at 1 µM (IRAK4) [%] | remaining binding at 1 µM [2] [%] | remaining binding at 1 µM (KIT(D816V)) [%] | remaining binding at 1 µM (MEK2) [%] | other results
1 | CCN1CCN(Cc2cc(NC(=O)c3ccc(C)c(-c4ccc5nc(NC(=O)C6CC6)cn5n4)c3)cc(C(F)(F)F)c2)CC1 [Compound I-2, 3-(2-(cyclopropanecarboxamido)imidazo[1,2-b]pyridazin-6-yl)-N-(3-((4-ethylpiperazin-1-yl)methyl)-5-(trifluoromethyl)phenyl)-4-methylbenzamide] | 1.1 | 0.4 | 8 | 99 | 97 | 100 | 97 | 94 | 94 | 14 | 100 | 45 | 2.2 | 0.15 | 87 | 50 | 26 | 19 | 32 | 95 | remaining binding at 1 µM (MEK5): 21%; remaining binding at 1 µM (MRCKA): 91%; remaining binding at 1 µM (MST1R): 83%; remaining binding at 1 µM (MUSK): 0.6%; remaining binding at 1 µM (MYLK): 65%; remaining binding at 1 µM (PCTK2): 1.8%; remaining binding at 1 µM (PIK3CA(E542K)): 96%; remaining binding at 1 µM (PIK3CA(H1047L)): 89%; remaining binding at 1 µM (PIK3CD): 100%; remaining binding at 1 µM (PRP4): 87%; remaining binding at 1 µM (ROS1): 52%; remaining binding at 1 µM (SLK): 1.6%; remaining binding at 1 µM (TGFBR1): 94%; remaining binding at 1 µM (TIE2): 0.1%; remaining binding at 1 µM (TNK1): 63%; remaining binding at 1 µM (ULK3): 97%; remaining binding at 1 µM (WNK1): 100%; remaining binding at 1 µM (YANK3): 91%; remaining binding at 1 µM (YSK4): 30%
2 | CCN1CCN(Cc2cc(NC(=O)c3ccc(C)c(-c4ccc5nc(NC(=O)C6CC6)cn5c4)c3)cc(C(F)(F)F)c2)CC1 [Compound I-6, 3-(2-(cyclopropanecarboxamido)imidazo[1,2-a]pyridin-6-yl)-N-(3-((4-ethylpiperazin-1-yl)methyl)-5-(trifluoromethyl)phenyl)-4-methylbenzamide] | 1.3 | 0.4 | 94 | 90 | 100 | 91 | 93 | 95 | 96 | 13 | 100 | 35 | 3.1 | 0 | 64 | 80 | 33 | 20 | 22 | 95 | remaining binding at 1 µM (MEK5): 17%; remaining binding at 1 µM (MRCKA): 100%; remaining binding at 1 µM (MST1R): 100%; remaining binding at 1 µM (MUSK): 2.1%; remaining binding at 1 µM (MYLK): 79%; remaining binding at 1 µM (PCTK2): 1.3%; remaining binding at 1 µM (PIK3CA(E542K)): 100%; remaining binding at 1 µM (PIK3CA(H1047L)): 68%; remaining binding at 1 µM (PIK3CD): 69%; remaining binding at 1 µM (PRP4): 100%; remaining binding at 1 µM (ROS1): 59%; remaining binding at 1 µM (SLK): 2.4%; remaining binding at 1 µM (TGFBR1): 100%; remaining binding at 1 µM (TIE2): 0.25%; remaining binding at 1 µM (TNK1): 31%; remaining binding at 1 µM (ULK3): 100%; remaining binding at 1 µM (WNK1): 100%; remaining binding at 1 µM (YANK3): 100%; remaining binding at 1 µM (YSK4): 29%
